Values joined by “and” are separate entries in the source; they are usually repeats but may differ in a detail not shown here. Equal values may be shown once.
What was measured:
[1] = tested on: white sucker; experiment: Static bioassay, lethal concentration to white sucker; type: in vivo, C. commmersoni
Experimental: (§1) Bioassays utilized water from an artesian well at Moscow, Idaho and from the headwaters of the Palouse River, also in Idaho. The chemical characteristics of the artesian water were analyzed as follows: Total hardness 67-120 mg/l; total dissolved solids, 160-175 mg/l; and pH 7.1. The chemistry of the Palouse River water was analyzed as follows: total hardness 17 mg/l; methyl orange alkalinity 26 mg/l; total dissolved solids, 32 mg/l and pH, 7.0.
(§2) Fish were acclimated to test temperatures, usually at 5, 7.5, 10, 15 and 20 degrees Celsius (C), at least 60 hours before exposure to toxicants. For fish and crayfish four water baths regulated the temperature of assay aquaria. Each water bath contained a battery of 20 identical 19-liter clear glass containers or 11.4-liter plastic aquaria lined with disposable polyethylene bags and covered with Plexiglass lids to reduce evaporation. For larger fish and large numbers of fish the bioassays were made in two temperature controlled rooms that contained a series of 700-liter circular fiberglass vats and a series of 76- and 91-liter plastic containers.
(§3) Standard bioassay techniques were used in sorting fish and conducting the tests. Fish were placed in aerated test aquaria overnight to permit fish to recover from stress due to handling and to deprive them of food. The average load varied but most bioassays were conducted with about 1 g of fish per liter of water.
(§4) Aliquots of organophosphates were dissolved in ethanol and dispensed to the aquaria to provide concentrations suitable for obtaining the LC0 and LC50 of desirable fish and the LC50 and LC100 of target fish. Control fish were conditioned in the same manner as the test fish, but no chemical was added to the control vessels during the assays. After the addition of a chemical, observations were made mainly at 3, 6, 12, 24, 48, 96, and 192 h. The weight and fork length of fish were obtained when fishes were sacrificed.
(§5) Delineation bioassays determined primarily the LC50 and LC100 of sucker and stickleback and the LC0 and LC50 of salmonids.
(§6) The statistical LC1, LC50, and LC99 were interpolated and/or extrapolated using probit graph paper to approximate the LC0, LC50, and LC100 when the latter set of values was not closely determined by single concentrations in a series.
(§7) The approximate LC50 and LC100 of the target fishes (threespine and brook sticklebacks and bridgelip and white suckers) are tabulated in Table 1. The 96-hour selectivity and safety indices of selected species of salmonids versus the three-spine stickleback are tabulated in Table 3.
(§8) Threespine stickleback, brook stickleback, bridgelip sucker, white sucker, chinook salmon, coho salmon, sockeye salmon, kokanee, Kamloops trout, cutthroat trout, and brook trout were treated with various concentrations of 2, 2, 2, 1-tetrachloroethyl diethyl phosphate and at various temperatures to determine approximate selectivity and safety indices. The approximate LC50 and LC100 of the target fishes (threespine and brook sticklebacks and bridgelip and white suckers) are tabulated in Table 5. The 96-hour selectivity and safety indices of selected species of salmonids versus the threespine stickleback are tabulated in Table 7.

[2] = Static bioassay, lethal concentration to Kamloops trout; type: in vivo, Kamloops (an adfluvial rainbow trout); settings: kamloops trout, in vivo
Experimental: as §1, §2, §3, §4, §5, §6, §7, §8

[3] = tested on: Kamloops trout; experiment: as above; type: in vivo, Kamloops (an adfluvial rainbow trout)
Experimental: as §1, §2, §3, §4, §5, §6, §7, §8

[4] = Static bioassay, lethal concentration to cutthroat trout; type: in vivo, S. clarki; settings: cutthroat trout, water
Experimental: as §1, §2, §3, §4, §5, §6, §7, §8

[5] = tested on: cutthroat trout; experiment: as above; type: in vivo, S. clarki
Experimental: as §1, §2, §3, §4, §5, §6, §7, §8

[6] = tested on: brook trout; experiment: Static bioassay, lethal concentration to brook trout; type: in vivo, Salvelinus fontinalis; settings: 15 C
Experimental: as §1, §2, §3, §4, §5, §6, §7, §8

[7] = tested on: crayfish; experiment: Bioassay, crayfish; type: in vivo, Pacifasticus klamathensis; settings: 10 C
Experimental: Cursory bioassays were made with small numbers of other fishes and a crayfish (Pacifasticus klamathensis) to check on the universal selectivity of the toxicants. The fishes included Arctic grayling (Thymallus arcticus), longnose sucker (C. catastomus), largescale sucker, (C. macrocheilus), and spotted sucker (Minytrema melanops).
A series of bioassays tested crayfish (9 to 10 crayfish per aquarium) at concentrations of 1, 3, and 10 mg/l of 2, 2-dichlorovinyl diethyl phosphate. […] A second series of bioassays tested crayfish (10 crayfish per aquarium) at 10 concentrations of 2, 2, 2, 1-tetrachloroethyl diethyl phosphate (range, 0 to 1400 μg/l).

[8] = tested on: suckers; experiment: Control of suckers in 24-hour applications, usable concentration; type: in vivo
Description: For field applications the concentration of the dichloro- and tetrachloro-compounds would vary with water quality--mainly with regard to water temperature and hydrogen ion concentrations. Generally, treated areas would contain water low in dissolved solids and a pH of 7 to 7.5. The activity of the chemicals would then be essentially similar to that determined in our tests using river water. For the treatment of rivers and shorelines of lakes the concentrations of the dichloro- and tetrachloro-compounds that would be used would be those that would kill stickleback or suckers in 12 to 24 hours. The information above, relating to Examples 1 and 12, substantiates improvement in fish culture by the addition of dichloroethyl or dichlorovinyl diethyl phosphate to an aqueous habitat at a concentration in water ranging between 0.1 and 10 mg/l. […] The information above, relating to Example 2, substantiates improvement in fish culture by the addition of tetrachloroethyl diethyl phosphate to an aqueous habitat at a concentration in water ranging between 4 and 80 μg/l.

[9] = in vivo; settings: chinook salmon
[10] = tested on: threespine stickleback; experiment: Long-term static bioassay, threespine stickleback; settings: 32 days, 10 C, individually
[11] = tested on: Salmonella, five strains; experiment: Salmonella standard plate test for mutagens/carcinogens; settings: 0.5, 5, 50, 500, and 5000 mg/l
[12] = 10 C, individually, read-out: LC50
[13] = with 2 Cl 1:300, 10 C, read-out: LC50 in combination, 4 Cl component
[14] = with 4 Cl 300:1, 10 C, read-out: LC50 in combination, 2 Cl component

SMILES: CCOP(=O)(OCC)OC(Cl)C(Cl)(Cl)Cl (stereo not shown) [2,2,2,1-tetrachloroethyl diethyl phosphate]
- LC50 ([1]; 15 C, 24 h): 0.004 mg/L
- LC100 ([1]; 15 C, 24 h): 10 µg/L
- LC50 ([1]; 15 C, 48 h): < 0.003 mg/L
- LC100 ([1]; 15 C, 48 h): 10 µg/L
- LC50 at 96 h ([2]; 5 C, read-out: LC50): > 0.03 µg/mL
- LC50 at 192 h ([2]; 5 C, read-out: LC50): 0.018 µg/mL
- LC50 at 96 h [2, 12]: 0.024 µg/mL
- LC50 at 192 h [2, 12]: 0.02 µg/mL
- LC50 at 96 h ([2]; 15 C, read-out: LC50): > 0.024 µg/mL
- LC50 at 192 h ([2]; 15 C, read-out: LC50): > 0.024 µg/mL
- LC50 at 96 h [2, 13]: 0.008 µg/mL
- LC50 at 192 h [2, 13]: 0.005 µg/mL
- LC0 ([3]; 5 C, 96 h): 0.024 mg/L
- LC0 ([3]; 5 C, 192 h): 0.012 mg/L
- LC0 ([3]; 10 C, 96 h, individually, listed as 2, 2, 2, 1-tetrachloroethyl diethyl phosphate): 0.018 mg/L and 0.014 mg/L
- LC0 ([3]; 10 C, 96 h, individually, listed as 4 Cl): 0.014 mg/L
- LC0 ([3]; 10 C, 192 h): 0.01 mg/L
- LC0 ([3]; 15 C, 96 h): 0.024 mg/L
- LC0 ([3]; 15 C, 192 h): 0.014 mg/L
- LC50 at 96 h ([4]; 10 C): 0.019 µg/mL
- LC50 at 192 h ([4]; 10 C): 0.017 µg/mL
- LC50 at 48 h ([4]; 15 C): 0.022 µg/mL
- LC50 at 96 h ([4]; 15 C): 0.018 µg/mL
- LC50 at 192 h ([4]; 15 C): 0.018 µg/mL
- LC0 ([5]; 10 C, 96 h): 14 µg/L
- LC0 ([5]; 10 C, 192 h): 14 µg/L
- LC0 ([5]; 15 C, 48 h): 14 µg/L
- LC0 ([5]; 15 C, 96 h): 14 µg/L
- LC0 ([5]; 15 C, 192 h): 14 µg/L
- LC0 ([6]; 48 h): 10 µg/L
- LC0 ([6]; 96 h): 10 µg/L
- LC0 ([6]; 192 h): 10 µg/L
- concentration at which no crayfish died ([7]; 96 h): ≤ 200 µg/L
- estimated LC100 of the sucker ([8]; relative to 6 to 4 μg/l for stickleback, 10 C): essentially the same
- LC50 at 48 h [9]: 0.035 µg/mL
- LC50 at 96 h [9]: 0.025 µg/mL
- LC50 at 192 h [9]: 0.025 µg/mL
- mortality ([10]; 4 μg/l): 100%
- mutagenic activity [11]: no mutagenic activity

SMILES: CCOP(=O)(OC=C(Cl)Cl)OCC [2,2-dichlorovinyl diethyl phosphate]
- LC50 ([1]; 20 C, 24 h): 0.10 mg/L
- LC50 ([1]; 20 C, 48 h): 0.07 mg/L
- LC50 ([1]; 20 C, 96 h): 0.06 mg/L
- LC100 ([1]; 20 C, 96 h): 100 µg/L
- LC50 ([1]; 20 C, 192 h): 0.05 mg/L
- LC100 ([1]; 20 C, 192 h): 100 µg/L
- LC50 at 192 h ([2]; 5 C, read-out: LC50): 5.1 µg/mL
- LC50 at 96 h [2, 12]: 5 µg/mL
- LC50 at 96 h ([2]; 10 C, read-out: LC50): 5.4 µg/mL
- LC50 at 192 h [2, 12]: 2 µg/mL
- LC50 at 192 h ([2]; 10 C, read-out: LC50): 2 µg/mL
- LC50 at 96 h ([2]; 15 C, read-out: LC50): 3.5 µg/mL
- LC50 at 192 h ([2]; 15 C, read-out: LC50): 3 µg/mL
- LC50 at 96 h [2, 14]: 2.4 µg/mL
- LC50 at 192 h [2, 14]: 1.5 µg/mL
- LC0 ([3]; 5 C, 48 h): > 4.0 mg/L
- LC0 ([3]; 5 C, 96 h): 2.0 mg/L
- LC0 ([3]; 5 C, 192 h): 1.4 mg/L
- LC0 ([3]; 10 C, 48 h): > 4.0 mg/L
- LC0 ([3]; 10 C, 96 h): 2.0 mg/L
- LC0 ([3]; 10 C, 96 h, individually): 2 mg/L
- LC0 ([3]; 10 C, 192 h): 1.0 mg/L
- LC0 ([3]; 15 C, 48 h): 3.0 mg/L
- LC0 ([3]; 15 C, 96 h): 1.0 mg/L
- LC0 ([3]; 15 C, 192 h): 1.0 mg/L
- LC50 at 192 h ([4]; 10 C): 4.8 µg/mL
- LC50 at 48 h ([4]; 15 C): 5.3 µg/mL
- LC50 at 96 h ([4]; 15 C): 2.5 µg/mL
- LC50 at 192 h ([4]; 15 C): 1.8 µg/mL
- LC0 ([5]; 10 C, 96 h): 4000 µg/L
- LC0 ([5]; 15 C, 48 h): 4000 µg/L
- LC0 ([5]; 15 C, 96 h): 2000 µg/L
- LC0 ([5]; 15 C, 192 h): 1000 µg/L
- LC0 ([6]; 48 h): 4000 µg/L
- LC0 ([6]; 96 h): 2000 µg/L
- LC0 ([6]; 192 h): 800 µg/L
- crayfish mortality ([7]; 1 mg/l, 96 h): No crayfish died
- crayfish mortality ([7]; 3 mg/l, 96 h): 1 out of 9 crayfish died
- crayfish mortality ([7]; 10 mg/l, 24 h): No crayfish died
- recommended safe and effective concentration ([8]; 10 to 15 C, river water tests): 1.0 mg/L
- LC50 at 192 h [9]: 5 µg/mL
- mortality ([10]; 600 μg/l): 65%
- mutagenic activity [11]: no mutagenic activity
